According to PubChem BioAssay AID1963978 (Molecular Pharmacology Branch, DTP, NCI, 2024):

System: 616215-338-R-J1-PDC spheroids with HUVEC/MSC, viability
Assay: Anticancer human tumor 616215-338-R-J1-PDC patient-derived colon adenocarcinoma cell line growth inhibition [PI3K]
Details: for IC50: curve of first compound; for viability, T/C: stronger effect = lower value
Outline: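 High-throughput combination screen: PI3K inhibitors crossed with targeted small molecules on complex spheroids of tumor cells, HUVEC and MSCs at 37 degrees C, 5% CO2. Top concentration was at or near clinical Cmax (otherwise 10 microM), with half-log decrements.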

[1] = second compound 0.0316 µM, first compound 0.000316 µM
[2] = second compound 0.0316 µM, first compound 0.001 µM
[3] = second compound 0.0316 µM, first compound 0.00316 µM
[4] = second compound 0.0316 µM, first compound 0.01 µM
[5] = second compound 0.0316 µM, first compound 0.0316 µM
[6] = second compound 0.0316 µM, first compound 0.1 µM
[7] = second compound 0.1 µM, first compound 0.000316 µM
[8] = second compound 0.1 µM, first compound 0.001 µM
[9] = second compound 0.1 µM, first compound 0.00316 µM
[10] = second compound 0.1 µM, first compound 0.01 µM
[11] = second compound 0.1 µM, first compound 0.0316 µM
[12] = second compound 0.1 µM, first compound 0.1 µM
[13] = second compound 0.316 µM, first compound 0.000316 µM
[14] = second compound 0.316 µM, first compound 0.001 µM
[15] = second compound 0.316 µM, first compound 0.00316 µM
[16] = second compound 0.316 µM, first compound 0.01 µM
[17] = second compound 0.316 µM, first compound 0.0316 µM
[18] = second compound 0.316 µM, first compound 0.1 µM
[19] = second compound 1 µM, first compound 0.000316 µM
[20] = second compound 1 µM, first compound 0.001 µM
[21] = second compound 1 µM, first compound 0.00316 µM
[22] = second compound 1 µM, first compound 0.01 µM
[23] = second compound 1 µM, first compound 0.0316 µM
[24] = second compound 1 µM, first compound 0.1 µM
[25] = second compound 3.16 µM, first compound 0.000316 µM
[26] = second compound 3.16 µM, first compound 0.001 µM
[27] = second compound 3.16 µM, first compound 0.00316 µM
[28] = second compound 3.16 µM, first compound 0.01 µM
[29] = second compound 3.16 µM, first compound 0.0316 µM
[30] = second compound 3.16 µM, first compound 0.1 µM
[31] = second compound 10 µM, first compound 0.000316 µM
[32] = second compound 10 µM, first compound 0.001 µM
[33] = second compound 10 µM, first compound 0.00316 µM
[34] = second compound 10 µM, first compound 0.01 µM
[35] = second compound 10 µM, first compound 0.0316 µM
[36] = second compound 10 µM, first compound 0.1 µM
[37] = second compound 0.0316 µM, first compound 0.316 µM
[38] = second compound 0.0316 µM, first compound 1 µM
[39] = second compound 0.0316 µM, first compound 3.16 µM
[40] = second compound 0.0316 µM, first compound 10 µM
[41] = second compound 0.1 µM, first compound 0.316 µM
[42] = second compound 0.1 µM, first compound 1 µM
[43] = second compound 0.1 µM, first compound 3.16 µM
[44] = second compound 0.1 µM, first compound 10 µM
[45] = second compound 0.316 µM, first compound 0.316 µM
[46] = second compound 0.316 µM, first compound 1 µM
[47] = second compound 0.316 µM, first compound 3.16 µM
[48] = second compound 0.316 µM, first compound 10 µM
[49] = second compound 1 µM, first compound 0.316 µM
[50] = second compound 1 µM, first compound 1 µM
[51] = second compound 1 µM, first compound 3.16 µM
[52] = second compound 1 µM, first compound 10 µM
[53] = second compound 3.16 µM, first compound 0.316 µM
[54] = second compound 3.16 µM, first compound 1 µM
[55] = second compound 3.16 µM, first compound 3.16 µM
[56] = second compound 3.16 µM, first compound 10 µM
[57] = second compound 10 µM, first compound 0.316 µM
[58] = second compound 10 µM, first compound 1 µM
[59] = second compound 10 µM, first compound 3.16 µM
[60] = second compound 10 µM, first compound 10 µM
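Note: spheroids exposed to agents for seven days before the viability read.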

CC(=O)c1c(C)c2cnc(Nc3ccc(N4CCNCC4)cn3)nc2n(C2CCCC2)c1=O + CC(Nc1ncnc2nc[nH]c12)c1cc2cccc(Cl)c2c(=O)n1-c1ccccc1
IC50 (second compound 0.0316 µM): > 0.1 µM
IC50 (second compound 0.1 µM): > 0.1 µM
IC50 (second compound 0.316 µM): > 0.1 µM
IC50 (second compound 1 µM): > 0.1 µM
IC50 (second compound 3.16 µM): > 0.1 µM
IC50 (second compound 10 µM): > 0.1 µM
viability, T/C [1]: 106%
viability, T/C [2]: 104%
viability, T/C [3]: 93.2%
viability, T/C [4]: 93.3%
viability, T/C [5]: 92.5%
viability, T/C [6]: 102%
viability, T/C [7]: 98.7%
viability, T/C [8]: 105%
viability, T/C [9]: 99.6%
viability, T/C [10]: 106%
viability, T/C [11]: 104%
viability, T/C [12]: 118%
viability, T/C [13]: 110%
viability, T/C [14]: 95.2%
viability, T/C [15]: 98.4%
viability, T/C [16]: 92.3%
viability, T/C [17]: 106%
viability, T/C [18]: 114%
viability, T/C [19]: 98.2%
viability, T/C [20]: 104%
viability, T/C [21]: 99.5%
viability, T/C [22]: 107%
viability, T/C [23]: 113%
viability, T/C [24]: 110%
viability, T/C [25]: 115%
viability, T/C [26]: 88.1%
viability, T/C [27]: 99.2%
viability, T/C [28]: 112%
viability, T/C [29]: 101%
viability, T/C [30]: 103%
viability, T/C [31]: 97.8%
viability, T/C [32]: 94%
viability, T/C [33]: 122%
viability, T/C [34]: 118%
viability, T/C [35]: 104%
viability, T/C [36]: 90.9%

CC(C)n1nc(-c2ccc3oc(N)nc3c2)c2c(N)ncnc21 + CC(Nc1ncnc2nc[nH]c12)c1cc2cccc(Cl)c2c(=O)n1-c1ccccc1
IC50 (second compound 0.0316 µM): > 0.1 µM
IC50 (second compound 0.1 µM): > 0.1 µM
IC50 (second compound 0.316 µM): > 0.1 µM
IC50 (second compound 1 µM): > 0.1 µM
IC50 (second compound 3.16 µM): > 0.1 µM
IC50 (second compound 10 µM): > 0.1 µM
viability, T/C [1]: 102%
viability, T/C [2]: 103%
viability, T/C [3]: 102%
viability, T/C [4]: 124%
viability, T/C [5]: 112%
viability, T/C [6]: 86.9%
viability, T/C [7]: 103%
viability, T/C [8]: 121%
viability, T/C [9]: 99.8%
viability, T/C [10]: 109%
viability, T/C [11]: 120%
viability, T/C [12]: 88.6%
viability, T/C [13]: 95.5%
viability, T/C [14]: 92.8%
viability, T/C [15]: 118%
viability, T/C [16]: 110%
viability, T/C [17]: 101%
viability, T/C [18]: 77.4%
viability, T/C [19]: 94.8%
viability, T/C [20]: 106%
viability, T/C [21]: 99.2%
viability, T/C [22]: 118%
viability, T/C [23]: 122%
viability, T/C [24]: 80.5%
viability, T/C [25]: 123%
viability, T/C [26]: 103%
viability, T/C [27]: 111%
viability, T/C [28]: 115%
viability, T/C [29]: 128%
viability, T/C [30]: 68.5%
viability, T/C [31]: 110%
viability, T/C [32]: 110%
viability, T/C [33]: 102%
viability, T/C [34]: 113%
viability, T/C [35]: 112%
viability, T/C [36]: 66.8%

CC1(C)CCC(CN2CCN(c3ccc(C(=O)NS(=O)(=O)c4ccc(NCC5CCOCC5)c([N+](=O)[O-])c4)c(Oc4cnc5[nH]ccc5c4)c3)CC2)=C(c2ccc(Cl)cc2)C1 + CC(Nc1ncnc2nc[nH]c12)c1cc2cccc(Cl)c2c(=O)n1-c1ccccc1
IC50 (second compound 0.0316 µM): 4.56 µM
IC50 (second compound 0.1 µM): 4.67 µM
IC50 (second compound 0.316 µM): 4.79 µM
IC50 (second compound 1 µM): 4.99 µM
IC50 (second compound 3.16 µM): 5.14 µM
IC50 (second compound 10 µM): 5.53 µM
viability, T/C [5]: 98.3%
viability, T/C [6]: 105%
viability, T/C [37]: 110%
viability, T/C [38]: 104%
viability, T/C [39]: 71.3%
viability, T/C [40]: 4.22%
viability, T/C [11]: 109%
viability, T/C [12]: 103%
viability, T/C [41]: 101%
viability, T/C [42]: 96.7%
viability, T/C [43]: 74.2%
viability, T/C [44]: 3.61%
viability, T/C [17]: 107%
viability, T/C [18]: 103%
viability, T/C [45]: 107%
viability, T/C [46]: 103%
viability, T/C [47]: 76.6%
viability, T/C [48]: 2.7%
viability, T/C [23]: 101%
viability, T/C [24]: 107%
viability, T/C [49]: 108%
viability, T/C [50]: 110%
viability, T/C [51]: 80.8%
viability, T/C [52]: 2.87%
viability, T/C [29]: 108%
viability, T/C [30]: 111%
viability, T/C [53]: 99.2%
viability, T/C [54]: 123%
viability, T/C [55]: 85%
viability, T/C [56]: 2.42%
viability, T/C [35]: 118%
viability, T/C [36]: 105%
viability, T/C [57]: 105%
viability, T/C [58]: 105%
viability, T/C [59]: 94.9%
viability, T/C [60]: 2.49%

CCCS(=O)(=O)Nc1ccc(F)c(C(=O)c2c[nH]c3ncc(-c4ccc(Cl)cc4)cc23)c1F + CC(Nc1ncnc2nc[nH]c12)c1cc2cccc(Cl)c2c(=O)n1-c1ccccc1
IC50 (second compound 0.0316 µM): 4.58 µM
IC50 (second compound 0.1 µM): 4.06 µM
IC50 (second compound 0.316 µM): 4.39 µM
IC50 (second compound 1 µM): 4.67 µM
IC50 (second compound 3.16 µM): 4.29 µM
IC50 (second compound 10 µM): 4.69 µM
viability, T/C [5]: 102%
viability, T/C [6]: 93.2%
viability, T/C [37]: 106%
viability, T/C [38]: 93.6%
viability, T/C [39]: 73.2%
viability, T/C [40]: 1.56%
viability, T/C [11]: 110%
viability, T/C [12]: 102%
viability, T/C [41]: 106%
viability, T/C [42]: 96.4%
viability, T/C [43]: 63.4%
viability, T/C [44]: 1.25%
viability, T/C [17]: 105%
viability, T/C [18]: 113%
viability, T/C [45]: 97.7%
viability, T/C [46]: 101%
viability, T/C [47]: 68.9%
viability, T/C [48]: 1.67%
viability, T/C [23]: 107%
viability, T/C [24]: 105%
viability, T/C [49]: 93.8%
viability, T/C [50]: 101%
viability, T/C [51]: 74.3%
viability, T/C [52]: 2.71%
viability, T/C [29]: 100%
viability, T/C [30]: 115%
viability, T/C [53]: 102%
viability, T/C [54]: 107%
viability, T/C [55]: 67.4%
viability, T/C [56]: 1.53%
viability, T/C [35]: 115%
viability, T/C [36]: 105%
viability, T/C [57]: 113%
viability, T/C [58]: 104%
viability, T/C [59]: 74.7%
viability, T/C [60]: 3%

C[C@@H](NC(=O)c1ncnc(N)c1Cl)c1ncc(C(=O)Nc2cc(C(F)(F)F)c(Cl)cn2)s1 + CC(Nc1ncnc2nc[nH]c12)c1cc2cccc(Cl)c2c(=O)n1-c1ccccc1
IC50 (second compound 0.0316 µM): > 10 µM
IC50 (second compound 0.1 µM): > 10 µM
IC50 (second compound 0.316 µM): > 10 µM
IC50 (second compound 1 µM): > 10 µM
IC50 (second compound 3.16 µM): > 10 µM
IC50 (second compound 10 µM): 9.7 µM
viability, T/C [5]: 100%
viability, T/C [6]: 115%
viability, T/C [37]: 105%
viability, T/C [38]: 105%
viability, T/C [39]: 114%
viability, T/C [40]: 88.5%
viability, T/C [11]: 99.7%
viability, T/C [12]: 101%
viability, T/C [41]: 97%
viability, T/C [42]: 118%
viability, T/C [43]: 105%
viability, T/C [44]: 90.5%
viability, T/C [17]: 112%
viability, T/C [18]: 105%
viability, T/C [45]: 101%
viability, T/C [46]: 110%
viability, T/C [47]: 99%
viability, T/C [48]: 74.6%
viability, T/C [23]: 104%
viability, T/C [24]: 106%
viability, T/C [49]: 104%
viability, T/C [50]: 96.6%
viability, T/C [51]: 113%
viability, T/C [52]: 64.8%
viability, T/C [29]: 95.9%
viability, T/C [30]: 103%
viability, T/C [53]: 104%
viability, T/C [54]: 98.4%
viability, T/C [55]: 99.4%
viability, T/C [56]: 67.2%
viability, T/C [35]: 95.4%
viability, T/C [36]: 113%
viability, T/C [57]: 98.8%
viability, T/C [58]: 98.5%
viability, T/C [59]: 88.5%
viability, T/C [60]: 48.4%
